# From ChEMBL document CHEMBL3525916, “Investigation of figopitant and its metabolites in rat tissue by combining whole-body autoradiography with liquid extraction surface analysis mass spectrometry” (Drug Metab Dispos, 2012)
# What was measured:
# Set-up in all cases: dose 5 mg/kg, route intravenous
# Details in all cases: in vivo
# Pituitary gland [1] = test: Drug uptake in albino Wistar Hannover rat pituitary at 5 mg/kg, iv by LESA-MS analysis; format: ADME, organism-based
# Thymus [2] = test: Biodistribution in albino Wistar Hannover rat thymus at 5 mg/kg, iv after 4 hrs by autoradiography analysis; format: ADME, organism-based
# Zone of skin [3] = test: Biodistribution in albino Wistar Hannover rat skin at 5 mg/kg, iv after 4 hrs by autoradiography analysis; format: ADME, organism-based
# Plasma = test: Biodistribution in albino Wistar Hannover rat plasma at 5 mg/kg, iv after 4 hrs by liquid scintillation counting; format: ADME, organism-based
# Muscle tissue = test: Drug uptake in albino Wistar Hannover rat muscle at 5 mg/kg, iv by LESA-MS analysis; format: ADME, organism-based
# Liver [4] = test: Biodistribution in albino Wistar Hannover rat liver at 5 mg/kg, iv after 4 hrs by autoradiography analysis; format: ADME, organism-based
# Rattus norvegicus [5] = test: Biodistribution in albino Wistar Hannover rat bone marrow at 5 mg/kg, iv after 24 hrs by autoradiography analysis; format: ADME, organism-based
# [6] = Half life in albino Wistar Hannover rat adipose tissue at 5 mg/kg, iv by autoradiography analysis; format: ADME, organism-based
# Stomach = test: Drug uptake in albino Wistar Hannover rat stomach at 5 mg/kg, iv by LESA-MS analysis; format: ADME, organism-based
# Rattus norvegicus [7] = test: Biodistribution in albino Wistar Hannover rat salivary gland at 5 mg/kg, iv after 4 hrs by autoradiography analysis; format: ADME, organism-based
# Rattus norvegicus [8] = test: Biodistribution in albino Wistar Hannover rat adipose tissue at 5 mg/kg, iv after 5 mins by autoradiography analysis; format: ADME, organism-based
# Lung [9] = test: Biodistribution in albino Wistar Hannover rat lung at 5 mg/kg, iv after 4 hrs by autoradiography analysis; format: ADME, organism-based
# Rattus norvegicus [10] = test: Biodistribution in albino Wistar Hannover rat adipose tissue at 5 mg/kg, iv after 24 hrs by autoradiography analysis; format: ADME, organism-based
# Liver [11] = test: Drug uptake in albino Wistar Hannover rat liver at 5 mg/kg, iv by LESA-MS analysis; format: ADME, organism-based
# Brain [12] = test: Biodistribution in albino Wistar Hannover rat brain at 5 mg/kg, iv after 4 hrs by autoradiography analysis; format: ADME, organism-based
# Rattus norvegicus [13] = test: Biodistribution in albino Wistar Hannover rat tongue at 5 mg/kg, iv after 4 hrs by autoradiography analysis; format: ADME, organism-based
# Rattus norvegicus [14] = test: Biodistribution in albino Wistar Hannover rat muscle caudal at 5 mg/kg, iv after 5 mins by autoradiography analysis; format: ADME, organism-based, Muscle tissue
# Zone of skin [15] = test: Biodistribution in albino Wistar Hannover rat skin at 5 mg/kg, iv after 5 mins by autoradiography analysis; format: ADME, organism-based
# Rattus norvegicus [16] = test: Biodistribution in albino Wistar Hannover rat renal cortex at 5 mg/kg, iv after 4 hrs by autoradiography analysis; format: ADME, organism-based
# Pancreas [17] = test: Biodistribution in albino Wistar Hannover rat pancreas at 5 mg/kg, iv after 4 hrs by autoradiography analysis; format: ADME, organism-based
# Rattus norvegicus [18] = test: Biodistribution in albino Wistar Hannover rat renal cortex at 5 mg/kg, iv after 5 mins by autoradiography analysis; format: ADME, organism-based
# Pituitary gland [19] = test: Biodistribution in albino Wistar Hannover rat pituitary at 5 mg/kg, iv after 5 mins by autoradiography analysis; format: ADME, organism-based
# Brain [20] = test: Biodistribution in albino Wistar Hannover rat brain at 5 mg/kg, iv after 24 hrs by autoradiography analysis; format: ADME, organism-based
# Pancreas [21] = test: Biodistribution in albino Wistar Hannover rat pancreas at 5 mg/kg, iv after 24 hrs by autoradiography analysis; format: ADME, organism-based
# Harderian gland = test: Biodistribution in albino Wistar Hannover rat harderian gland at 5 mg/kg, iv after 5 mins by autoradiography analysis; format: ADME, organism-based
# Brain [22] = test: Biodistribution in albino Wistar Hannover rat brain at 5 mg/kg, iv after 5 mins by autoradiography analysis; format: ADME, organism-based
# Rattus norvegicus [23] = test: Biodistribution in albino Wistar Hannover rat epididymis at 5 mg/kg, iv after 4 hrs by autoradiography analysis; format: ADME, organism-based
# Thymus [24] = test: Biodistribution in albino Wistar Hannover rat thymus at 5 mg/kg, iv after 24 hrs by autoradiography analysis; format: ADME, organism-based
# Lung [25] = test: Half life in albino Wistar Hannover rat lung at 5 mg/kg, iv by autoradiography analysis; format: ADME, organism-based
# Thymus [26] = test: Half life in albino Wistar Hannover rat thymus at 5 mg/kg, iv by autoradiography analysis; format: ADME, organism-based
# Zone of skin [27] = test: Biodistribution in albino Wistar Hannover rat skin at 5 mg/kg, iv after 24 hrs by autoradiography analysis; format: ADME, organism-based
# Rattus norvegicus [28] = test: Biodistribution in albino Wistar Hannover rat tongue at 5 mg/kg, iv after 5 mins by autoradiography analysis; format: ADME, organism-based
# Rattus norvegicus [29] = test: Biodistribution in albino Wistar Hannover rat epididymis at 5 mg/kg, iv after 24 hrs by autoradiography analysis; format: ADME, organism-based
# [30] = Half life in albino Wistar Hannover rat testis at 5 mg/kg, iv by autoradiography analysis; format: ADME, organism-based
# Spleen = test: Biodistribution in albino Wistar Hannover rat spleen at 5 mg/kg, iv after 5 mins by autoradiography analysis; format: ADME, organism-based
# [31] = Drug uptake in albino Wistar Hannover rat salivary gland at 5 mg/kg, iv by LESA-MS analysis; format: ADME, organism-based
# Pituitary gland [32] = test: Biodistribution in albino Wistar Hannover rat pituitary at 5 mg/kg, iv after 4 hrs by autoradiography analysis; format: ADME, organism-based
# Lung [33] = test: Biodistribution in albino Wistar Hannover rat lung at 5 mg/kg, iv after 24 hrs by autoradiography analysis; format: ADME, organism-based
# Rattus norvegicus [34] = test: Biodistribution in albino Wistar Hannover rat salivary gland at 5 mg/kg, iv after 24 hrs by autoradiography analysis; format: ADME, organism-based
# Rattus norvegicus [35] = test: Biodistribution in albino Wistar Hannover rat adrenal cortex at 5 mg/kg, iv after 4 hrs by autoradiography analysis; format: ADME, organism-based
# Rattus norvegicus [36] = test: Biodistribution in albino Wistar Hannover rat muscle cranial at 5 mg/kg, iv after 5 mins by autoradiography analysis; format: ADME, organism-based, Muscle tissue
# Rattus norvegicus [37] = test: Biodistribution in albino Wistar Hannover rat salivary gland at 5 mg/kg, iv after 5 mins by autoradiography analysis; format: ADME, organism-based
compound,measurement,setting,value
CN(CCc1cc(C(F)(F)F)cc(C(F)(F)F)c1)C(=O)[C@H](c1ccccc1)N1CCN(CC2CC2)CC1.Cl.O,Drug uptake,Pituitary gland [1],47.8%
same,Drug uptake,Thymus [2],3372 ngequiv/g
same,Drug uptake,Zone of skin [3],1997 ngequiv/g
same,Drug uptake,Plasma,192 ngequiv/g
same,Drug uptake,Muscle tissue,36.5%
same,Drug uptake,Liver [4],13851 ngequiv/g
same,Drug uptake,Rattus norvegicus [5],1156 ngequiv/g
same,t1/2,[6],27.1 h
same,Drug uptake,Stomach,34.6%
same,Drug uptake,Rattus norvegicus [7],8238 ngequiv/g
same,Drug uptake,Rattus norvegicus [8],467 ngequiv/g
same,Drug uptake,Lung [9],10036 ngequiv/g
same,Drug uptake,Rattus norvegicus [10],113 ngequiv/g
same,Drug uptake,Liver [11],12.9%
same,Drug uptake,Brain [12],122 ngequiv/g
same,Drug uptake,Rattus norvegicus [13],3786 ngequiv/g
same,Drug uptake,Rattus norvegicus [14],6936 ngequiv/g
same,Drug uptake,Zone of skin [15],1743 ngequiv/g
same,Drug uptake,Rattus norvegicus [16],8020 ngequiv/g
same,Drug uptake,Pancreas [17],12820 ngequiv/g
same,Drug uptake,Rattus norvegicus [18],19088 ngequiv/g
same,Drug uptake,Pituitary gland [19],8110 ngequiv/g
same,Drug uptake,Brain [20],50 ngequiv/g
same,Drug uptake,Pancreas [21],4138 ngequiv/g
same,Drug uptake,Harderian gland,4132 ngequiv/g
same,Drug uptake,Brain [22],1912 ngequiv/g
same,Drug uptake,Rattus norvegicus [23],2290 ngequiv/g
same,Drug uptake,Thymus [24],1746 ngequiv/g
same,t1/2,Lung [25],20.5 h
same,t1/2,Thymus [26],22.7 h
same,Drug uptake,Zone of skin [27],606 ngequiv/g
same,Drug uptake,Rattus norvegicus [28],12885 ngequiv/g
same,Drug uptake,Rattus norvegicus [29],1043 ngequiv/g
same,t1/2,[30],95.6 h
same,Drug uptake,Spleen,7308 ngequiv/g
same,Drug uptake,[31],42.5%
same,Drug uptake,Pituitary gland [32],7747 ngequiv/g
same,Drug uptake,Lung [33],1708 ngequiv/g
same,Drug uptake,Rattus norvegicus [34],1877 ngequiv/g
same,Drug uptake,Rattus norvegicus [35],11078 ngequiv/g
same,Drug uptake,Rattus norvegicus [36],8437 ngequiv/g
same,Drug uptake,Rattus norvegicus [37],10729 ngequiv/g
